For four compounds, Ki results are on record in BindingDB's records for doi:10.1021/jm00162a015 (1987).

Structures are written as SMILES. Square brackets hold non-standard residues; d marks the D form. Peptide text beside a SMILES is read from it. * marks the point of attachment. Sta = CC(C)C[C@H](N)[C@@H](O)CC(=O)O; Boc = CC(C)(C)OC(=O)*

This assay addresses Rhizopuspepsin (Rhizopus chinensis). Briefly: Compound was tested for inhibition of Rhizopus chinensis pepsin.
`COC(=O)[C@H](CC(C)C)NC(=O)[C@@H](NC(=O)C[C@H](O)[C@H](CC(C)C)NC(=O)[C@H](C)NC(=O)[C@H](C)NC(=O)[C@H](Cc1ccccc1)NC(=O)OC(C)(C)C)C(C)C` [2-[2-(4-{2-[2-(2-tert-Butoxycarbonylamino-3-phenyl-propionylamino)-propionylamino]-propionylamino}-3-hydroxy-6-methyl-heptanoylamino)-3-methyl-butyrylamino]-4-methyl-pentanoic acid methyl ester] (Boc-FAA[Sta]VL-OMe): the Ki – broadly, a dissociation constant, usually derived from enzyme kinetics or from competition with a known ligand – stood at 78 nM. That is a double-digit nanomolar value.
The figure for `COC(=O)[C@H](CC(C)C)NC(=O)[C@@H](NC(=O)[C@H](Cc1ccccc1)NC(=O)C[C@H](O)[C@H](CC(C)C)NC(=O)[C@H](C)NC(=O)[C@H](Cc1ccccc1)NC(=O)[C@H](Cc1ccccc1)NC(=O)OC(C)(C)C)C(C)C` [2-{2-[2-(4-{2-[2-(2-tert-Butoxycarbonylamino-3-phenyl-propionylamino)-3-phenyl-propionylamino]-propionylamino}-3-hydroxy-6-methyl-heptanoylamino)-3-phenyl-propionylamino]-3-methyl-butyrylamino}-4-methyl-pentanoic acid methyl ester] (Boc-FFA[Sta]FVL-OMe) is 14 nM.
For `COC(=O)[C@H](CC(C)C)NC(=O)[C@@H](NC(=O)[C@H](Cc1ccccc1)NC(=O)C[C@H](O)[C@H](CC(C)C)NC(=O)[C@H](C)NC(=O)[C@H](CC(C)C)NC(=O)[C@H](Cc1ccccc1)NC(=O)OC(C)(C)C)C(C)C` [2-{2-[2-(4-{2-[2-(2-tert-Butoxycarbonylamino-3-phenyl-propionylamino)-4-methyl-pentanoylamino]-propionylamino}-3-hydroxy-6-methyl-heptanoylamino)-3-phenyl-propionylamino]-3-methyl-butyrylamino}-4-methyl-pentanoic acid methyl ester] (Boc-FLA[Sta]FVL-OMe) the value was 9.2 nM; for `COC(=O)[C@H](CC(C)C)NC(=O)[C@@H](NC(=O)[C@H](Cc1ccccc1)NC(=O)C[C@H](O)[C@H](CC(C)C)NC(=O)[C@H](C)NC(=O)[C@H](C)NC(=O)[C@H](Cc1ccccc1)NC(=O)OC(C)(C)C)C(C)C` [2-{2-[2-(4-{2-[2-(2-tert-Butoxycarbonylamino-3-phenyl-propionylamino)-propionylamino]-propionylamino}-3-hydroxy-6-methyl-heptanoylamino)-3-phenyl-propionylamino]-3-methyl-butyrylamino}-4-methyl-pentanoic acid methyl ester] (Boc-FAA[Sta]FVL-OMe), 51 nM.
